Assay results as given in US11447466B2, “Substituted indole compounds useful as inhibitors of TLR7/8/9” (BRISTOL-MYERS SQUIBB COMPANY, priority 2017, dated 2022).
pIC50: −log10 of the molar value.

Key:
Type in all cases: cell-based
[1] = target: T1, human TLR8 (Homo sapiens, UniProt Q9NR97); assay: TLR8 inhibition reporter assay (HEK-Blue SEAP reporter, R848 stimulation); settings: HEK-Blue cells overexpressing human TLR8, SEAP reporter, R848 15.9 μM, 22 hour incubation
T1 construct: host or cells: HEK-Blue cells
T1 sequence (Q9NR97 27-1041): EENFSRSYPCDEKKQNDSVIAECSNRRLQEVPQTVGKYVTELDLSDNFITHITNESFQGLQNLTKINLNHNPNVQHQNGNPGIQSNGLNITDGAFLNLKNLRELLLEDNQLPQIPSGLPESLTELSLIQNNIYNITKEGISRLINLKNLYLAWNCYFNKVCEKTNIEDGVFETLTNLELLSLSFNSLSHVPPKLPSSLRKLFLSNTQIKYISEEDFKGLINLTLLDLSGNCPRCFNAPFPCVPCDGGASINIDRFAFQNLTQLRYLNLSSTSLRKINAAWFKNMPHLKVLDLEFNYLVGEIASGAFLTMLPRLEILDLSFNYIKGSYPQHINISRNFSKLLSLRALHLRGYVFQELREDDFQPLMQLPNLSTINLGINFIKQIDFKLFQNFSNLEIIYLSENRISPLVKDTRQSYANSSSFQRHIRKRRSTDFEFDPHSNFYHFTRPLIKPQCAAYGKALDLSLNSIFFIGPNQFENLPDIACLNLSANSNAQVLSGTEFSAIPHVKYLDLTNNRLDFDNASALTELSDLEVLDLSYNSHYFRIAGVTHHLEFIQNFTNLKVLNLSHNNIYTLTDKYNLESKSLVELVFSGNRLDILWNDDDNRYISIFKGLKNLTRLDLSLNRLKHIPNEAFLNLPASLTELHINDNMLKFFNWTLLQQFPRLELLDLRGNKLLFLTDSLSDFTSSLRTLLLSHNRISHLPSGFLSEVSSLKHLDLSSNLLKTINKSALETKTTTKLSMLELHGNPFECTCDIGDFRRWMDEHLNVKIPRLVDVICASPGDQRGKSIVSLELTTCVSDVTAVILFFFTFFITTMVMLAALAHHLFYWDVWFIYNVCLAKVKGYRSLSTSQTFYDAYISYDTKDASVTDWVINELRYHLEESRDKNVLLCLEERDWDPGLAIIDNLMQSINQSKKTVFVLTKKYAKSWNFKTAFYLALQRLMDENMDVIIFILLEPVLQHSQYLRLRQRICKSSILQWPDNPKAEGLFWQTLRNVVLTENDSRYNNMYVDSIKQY
Summary of the method: (§1)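 Human TLR7/8/9 HEK-Blue reporter lines; dose range 0.05 nM–50 μM; 30 min RT preincubation; stimulus gardiquimod 7.5 μM / R848 15.9 μM / ODN2006 5 nM respectively; 22 h, 37 °C; SEAP detected colorimetrically.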

[2] = target: T2, human TLR7 (Homo sapiens, UniProt Q9NYK1); assay: TLR7 inhibition reporter assay (HEK-Blue SEAP reporter, gardiquimod stimulation); settings: HEK-Blue cells overexpressing human TLR7, SEAP reporter, gardiquimod 7.5 μM, 22 hour incubation
T2 construct: host or cells: HEK-Blue cells
T2 sequence (Q9NYK1 27-1049): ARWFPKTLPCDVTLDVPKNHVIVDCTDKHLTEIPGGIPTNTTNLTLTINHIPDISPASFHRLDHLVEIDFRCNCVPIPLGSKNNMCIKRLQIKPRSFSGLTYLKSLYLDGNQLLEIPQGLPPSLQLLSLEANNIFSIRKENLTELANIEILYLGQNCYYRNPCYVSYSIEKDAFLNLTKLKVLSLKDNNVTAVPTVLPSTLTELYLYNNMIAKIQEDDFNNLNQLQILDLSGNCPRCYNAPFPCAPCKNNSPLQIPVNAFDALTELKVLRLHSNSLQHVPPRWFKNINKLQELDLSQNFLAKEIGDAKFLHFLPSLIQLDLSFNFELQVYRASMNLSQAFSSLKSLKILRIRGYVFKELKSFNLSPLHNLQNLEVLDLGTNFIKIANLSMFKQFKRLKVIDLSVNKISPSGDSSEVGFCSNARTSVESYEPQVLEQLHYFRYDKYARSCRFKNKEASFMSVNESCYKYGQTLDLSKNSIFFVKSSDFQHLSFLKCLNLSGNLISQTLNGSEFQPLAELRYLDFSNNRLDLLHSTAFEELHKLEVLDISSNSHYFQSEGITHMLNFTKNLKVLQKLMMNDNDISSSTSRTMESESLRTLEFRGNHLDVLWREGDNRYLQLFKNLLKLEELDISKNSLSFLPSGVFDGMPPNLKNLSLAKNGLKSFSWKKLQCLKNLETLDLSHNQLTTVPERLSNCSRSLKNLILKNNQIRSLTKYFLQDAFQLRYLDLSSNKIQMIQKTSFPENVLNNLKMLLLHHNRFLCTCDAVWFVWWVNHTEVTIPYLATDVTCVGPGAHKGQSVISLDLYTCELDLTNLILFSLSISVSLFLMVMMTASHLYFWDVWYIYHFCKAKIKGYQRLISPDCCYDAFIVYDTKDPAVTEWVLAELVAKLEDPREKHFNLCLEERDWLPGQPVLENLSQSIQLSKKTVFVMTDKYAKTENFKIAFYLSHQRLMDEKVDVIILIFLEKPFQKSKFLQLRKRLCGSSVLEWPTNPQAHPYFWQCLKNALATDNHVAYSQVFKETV
Summary of the method: as §1

[3] = target: T3, human TLR9 (Homo sapiens, UniProt Q9NR96); assay: TLR9 inhibition reporter assay (HEK-Blue SEAP reporter, ODN2006 stimulation); settings: HEK-Blue cells overexpressing human TLR9, SEAP reporter, ODN2006 5 nM, 22 hour incubation
T3 construct: host or cells: HEK-Blue cells
T3 sequence (Q9NR96 26-1032): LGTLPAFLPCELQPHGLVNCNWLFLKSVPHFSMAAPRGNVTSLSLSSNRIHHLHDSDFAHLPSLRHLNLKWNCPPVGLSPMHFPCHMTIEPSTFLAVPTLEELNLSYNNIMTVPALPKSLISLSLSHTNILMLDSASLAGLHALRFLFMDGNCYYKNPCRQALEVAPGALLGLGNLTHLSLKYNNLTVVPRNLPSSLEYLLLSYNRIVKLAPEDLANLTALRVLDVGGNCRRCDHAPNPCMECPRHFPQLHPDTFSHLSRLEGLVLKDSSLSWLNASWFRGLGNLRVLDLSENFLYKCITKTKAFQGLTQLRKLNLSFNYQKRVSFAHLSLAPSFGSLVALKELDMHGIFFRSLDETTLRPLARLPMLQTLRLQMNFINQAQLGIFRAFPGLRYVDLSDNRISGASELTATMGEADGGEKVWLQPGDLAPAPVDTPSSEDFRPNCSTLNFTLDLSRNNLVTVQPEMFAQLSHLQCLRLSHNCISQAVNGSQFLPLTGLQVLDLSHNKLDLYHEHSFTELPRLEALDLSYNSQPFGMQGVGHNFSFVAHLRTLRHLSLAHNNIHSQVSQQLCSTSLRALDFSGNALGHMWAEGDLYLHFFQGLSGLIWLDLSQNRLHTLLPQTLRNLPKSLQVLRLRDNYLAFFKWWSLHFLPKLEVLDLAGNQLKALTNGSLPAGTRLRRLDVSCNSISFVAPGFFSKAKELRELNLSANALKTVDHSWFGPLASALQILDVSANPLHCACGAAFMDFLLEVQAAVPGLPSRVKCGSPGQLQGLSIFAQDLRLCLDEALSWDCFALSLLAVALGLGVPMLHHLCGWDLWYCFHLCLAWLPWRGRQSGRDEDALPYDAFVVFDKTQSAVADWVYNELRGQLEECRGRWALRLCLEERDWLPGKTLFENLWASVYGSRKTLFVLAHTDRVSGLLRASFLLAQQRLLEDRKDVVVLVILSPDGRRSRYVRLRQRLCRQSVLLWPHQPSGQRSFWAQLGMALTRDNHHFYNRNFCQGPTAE
Summary of the method: as §1

Compound	pIC50 [1]	pIC50 [2]	pIC50 [3]
Cc1nc(-c2[nH]c3ccc(C4CCN(C)CC4)cc3c2C(C)C)cn(C)c1=O [Example 183, 5-(3-isopropyl-5-(1-methylpiperidin-4-yl)-1H-indol-2-yl)-1,3-dimethylpyrazin-2(1H)-one]	7.50	7.55	5.02
Cc1nc(-c2[nH]c3ccc(C4CCN(C(C)C)CC4)cc3c2C(C)C)cn(C)c1=O [Example 184, 5-(3-isopropyl-5-(1-isopropylpiperidin-4-yl)-1H-indol-2-yl)-1,3-dimethylpyrazin-2(1H)-one]	7.47	7.14	5.67
Cc1nc(-c2[nH]c3ccc(C4CCN(C5CCOCC5)CC4)cc3c2C(C)C)cn(C)c1=O [Example 185, 5-(3-isopropyl-5-(1-(tetrahydro-2H-pyran-4-yl)piperidin-4-yl)-1H-indol-2-yl)-1,3-dimethylpyrazin-2(1H)-one]	7.72	7.21	5.36
Cc1nc(-c2[nH]c3ccc(C4CCN(C5COC5)CC4)cc3c2C(C)C)cn(C)c1=O [Example 186, 5-(3-isopropyl-5-(1-(oxetan-3-yl)piperidin-4-yl)-1H-indol-2-yl)-1,3-dimethylpyrazin-2(1H)-one]	7.12	6.95	5.17
Cc1nc(-c2[nH]c3ccc(C4CCN(C5CCCOC5)CC4)cc3c2C(C)C)cn(C)c1=O (stereo not drawn) [Example 187, 5-(3-isopropyl-5-(1-(tetrahydro-2H-pyran-3-yl)piperidin-4-yl)-1H-indol-2-yl)-1,3-dimethylpyrazin-2(1H)-one]	7.52	7.07	6.18
Cc1cc(-c2[nH]c3ccc(C4CCN(C5COC5)CC4)cc3c2C(C)C)nn(C)c1=O [Example 189, 6-(3-isopropyl-5-(1-(oxetan-3-yl)piperidin-4-yl)-1H-indol-2-yl)-2,4-dimethylpyridazin-3(2H)-one]	7.60	7.59	4.32
Cc1nc(-c2[nH]c3ccc(C4CCN(C5CCOC5)CC4)cc3c2C(C)C)cn(C)c1=O (stereo not drawn) [Example 190, 5-(3-isopropyl-5-(1-(tetrahydrofuran-3-yl)piperidin-4-yl)-1H-indol-2-yl)-1,3-dimethylpyrazin-2(1H)-one]	7.27	7.59	5.64
Cc1cc(-c2[nH]c3ccc(C4CCN(C)CC4)cc3c2C(C)C)nn(C)c1=O [Example 191, 6-(3-isopropyl-5-(1-methylpiperidin-4-yl)-1H-indol-2-yl)-2,4-dimethylpyridazin-3(2H)-one]	7.67	8.16	5.05
Cc1cc(-c2[nH]c3ccc(C4CCN(C(C)C)CC4)cc3c2C(C)C)nn(C)c1=O [Example 192, 6-(3-isopropyl-5-(1-isopropylpiperidin-4-yl)-1H-indol-2-yl)-2,4-dimethylpyridazin-3(2H)-one]	7.92	8.19	5.55
Cc1cc(-c2[nH]c3ccc(C4CCN(C5CCOC5)CC4)cc3c2C(C)C)nn(C)c1=O (stereo not drawn) [Example 193, 6-(3-isopropyl-5-(1-(tetrahydrofuran-3-yl)piperidin-4-yl)-1H-indol-2-yl)-2,4-dimethylpyridazin-3(2H)-one]	7.93	7.90	5.05

Stronger by pIC50 [1], values ahead:

pIC50 [1]	pIC50 [2]	pIC50 [3]	Compound
8.14	8.23	5.26	Cc1cc(-c2[nH]c3ccc(C4CCN(C(C)C)CC4)cc3c2C(C)C)cn(C)c1=O [Example 182, 5-(3-isopropyl-5-(1-isopropylpiperidin-4-yl)-1H-indol-2-yl)-1,3-dimethylpyridin-2(1H)-one]
7.95	7.85	6.28	Cc1cc(-c2[nH]c3ccc(C4CCN(C5CCCOC5)CC4)cc3c2C(C)C)nn(C)c1=O (stereo not drawn) [Example 188, 6-(3-isopropyl-5-(1-(tetrahydro-2H-pyran-3-yl)piperidin-4-yl)-1H-indol-2-yl)-2,4-dimethylpyridazin-3(2H)-one]
8.20	7.99	5.53	Cc1cc(-c2[nH]c3ccc(C4CCN(C5CCOCC5)CC4)cc3c2C(C)C)nn(C)c1=O [Example 194, 6-(3-isopropyl-5-(1-(tetrahydro-2H-pyran-4-yl)piperidin-4-yl)-1H-indol-2-yl)-2,4-dimethylpyridazin-3(2H)-one]
8.59	8.41	5.28	Cc1cc(-c2[nH]c3ccc(C4CCN(Cc5ccn(C)n5)CC4)cc3c2C(C)C)cn(C)c1=O [Example 195, 5-(3-isopropyl-5-(1-((1-methyl-1H-pyrazol-3-yl)methyl)piperidin-4-yl)-1H-indol-2-yl)-1,3-dimethylpyridin-2(1H)-one]
8.62	8.52	5.30	Cc1cc(-c2[nH]c3ccc(C4CCN(Cc5cnn(C)c5)CC4)cc3c2C(C)C)cn(C)c1=O [Example 196, 5-(3-isopropyl-5-(1-((1-methyl-1H-pyrazol-4-yl)methyl)piperidin-4-yl)-1H-indol-2-yl)-1,3-dimethylpyridin-2(1H)-one]
